# Data: patent EP4813989A1, “CRYSTAL, PHARMACEUTICAL COMPOSITION, PREPARATION METHOD THEREFOR, AND USE THEREOF” (TYK Medicines, Inc., priority 2023, dated 2025)
# What was measured:
# Format in all cases: physicochemical
# [1] = Stability study of tablets (40°C/75%RH): related substances; settings: condition N/A
# Experimental: The inventors produced tablet 1 (40 mg) and the tablet 2 (10 mg) according to the formulations in Example 1 and Example 2. The above samples were stored under conditions of 40°C/75%RH (open), 40°C/75%RH (sealed), and 40°C/75%RH (sealed+1 g desiccant) to investigate dissolutions and related substances.
# [2] = pH-dependent solubility study; settings: increasing with rising pH
# Description: Following oral administration, the drug can be absorbed at multiple different sites along the gastrointestinal tract (including via the stomach, duodenum, jejunum, ileum, and colon). There is a significant pH change between the stomach (pH 1-3.5) and the small intestine (pH 4-8), resulting in different pH conditions at each absorption site. […] In dissolution studies, it was observed that the sink condition can be satisfied in pH 6.8 medium supplemented with SDS.
# [3] = Solid form stability on standing (XRD/PLM)
# Description: The resulting solid sample was subjected to a corresponding characterization test. An XRD pattern of the sample can be seen in FIG. 8.
# A crystal form E sample was obtained by suspending and stirring the amorphous sample prepared in Example 2 in a 1,4-dioxane/n-heptane solvent system at room temperature. XRD results of the sample can be seen in FIG. 9. […] On this basis, it was inferred that the crystal form E was a metastable crystal form.
# XRD results of the sample can be seen in FIG. 17.
# XRD results of the sample can be seen in FIG. 20. TGA/DSC results can be seen in FIG. 21. […] An ^1H NMR spectrum of the crystal form D was obtained by a test in DMSO-d6, and no obvious solvent residue was observed. […] Based on nuclear magnetic resonance data and heating test results of the sample, it was inferred that the crystal form D was a hydrate crystal form.
# [4] = listed as Active pharmaceutical ingredient^*2
smiles,measurement,setting,value
C[C@@H](Nc1ccn2ncc(C3=NOC(C)(C)N3)c2n1)c1cc(F)cc(F)c1F.O [Active pharmaceutical ingredient],Individual impurity (RRT) 0.56,[1],<0.05%
same,Individual impurity (RRT) 0.66/ 0.67/ 0.69/ 0.70,[1],0.22%
same,Individual impurity (RRT) 0.71/ 0.72/ 0.73/ 0.74,[1],0.18%
same,Individual impurity (RRT) 0.91,[1],<0.05%
same,Individual impurity (RRT) 1.02,[1],0.27%
same,Individual impurity (RRT) 1.05/ 1.06,[1],0.07%
same,Individual impurity (RRT) 1.07/ 1.08,[1],0.18%
same,Individual impurity (RRT) 1.14,[1],<0.05%
same,Total impurities,[1],0.92%
same,Individual impurity (RRT) 0.71/ 0.72/ 0.73/ 0.74,[1]; [4],0.19%
same,Individual impurity (RRT) 1.02,[1]; [4],0.32%
same,Individual impurity (RRT) 1.07/ 1.08,[1]; [4],0.19%
same,Total impurities,[1]; [4],0.99%
"C[C@@H](Nc1ccn2ncc(C3=NOC(C)(C)N3)c2n1)c1cc(F)cc(F)c1F [TY-2136b, (R)-3-(5,5-dimethyl-4,5-dihydro-1,2,4-oxadiazol-3-yl)-N-(1-(2,3,5-trifluorophenyl)ethyl)pyrazolo[1 ,5-a]pyrimidin-5-amine]",solubility,[2],generally low
C[C@@H](Nc1ccn2ncc(C3=NOC(C)(C)N3)c2n1)c1cc(F)cc(F)c1F [crystal form B],Solid form stability,"[3]; room humidity (17.3%RH), same day",rapidly transformed into a crystal form C
C[C@@H](Nc1ccn2ncc(C3=NOC(C)(C)N3)c2n1)c1cc(F)cc(F)c1F [crystal form D],Solid form stability,[3]; heating to 120°C and cooling to room temperature,transformed into an amorphous form
same,Crystallinity,[3]; standing sealed at room temperature for 2 days,significantly reduced
